Source: patent US11414377B2, “Modulator of metabotropic and ionotropic transmembrane receptors and use thereof” (IBD THERAPEUTICS LLC, priority 2018, dated 2022)

How the values were obtained:
[1] = system: male balb/c mice; assay: Motility of the gastrointestinal tract in vivo (activated carbon transit); conditions: for The time of ejection of activated carbon: intact 73.8 ± 3.7
Procedure: The effect of Compound I on the motility of the GIT was studied by a standard procedure (Li Y. Y., Li Y. N., Ni J. B., Chen C. J., Lv S., Chai S. Y., Wu R. H., Yüce B., Storr M. Involvement of cannabinoid-1 and cannabinoid-2 receptors in septic ileus//Neurogastroenterol Motil. 2010. V. 22. P. 350-388). The study was carried out on male balb/c mice, the individual weight of which deviates from the mean value within the sex of no more than ±20%. The animals were given the intragastric administration of a solution of activated carbon (50 mg/ml, in 10 ml/kg) and the rate (in minutes) of the movement of the activated carbon on the intestine of animals was evaluated. Compounds I was administered once intragastrically 1 hour prior to administration of activated carbon. As the comparative preparations, hyoscin butyl bromide (Buscopan) at a dose of 3 mg/kg, trimebutine (Trimedat) at a dose of 33 mg/kg, mebeverine (Duspatalin) at a dose of 30 mg/kg were used. The obtained data were checked using the Grubb's test for the presence of the largest or smallest abnormal observation (ejection) in the sample. Values determined “to be eliminated” in this test were not used for further assay. For all data, descriptive statistics was used: a mean value (M) and standard error of the mean value (m) were counted up. The normality of distribution of the values obtained in the course of the experiment was checked with the aid of the Kolmogorov-Smirnov test. In the case of normal distribution, Student's t-test (t-test) was used to evaluate the inter-group distinctions. In the case of the distribution that is other than the normal one for the comparison of several groups, the Kruskall-Wallis test (with Dann's post hoc test) was used. Distinctions were determined at 5% at a level of confidence.

[2] = target: T1, NK3R (Homo sapiens, UniProt P29371); assay: Effect on activity of tachykinin receptor type 3 (intracellular calcium, fluorescence); assay type: cell-based; conditions: CHO-K1 cells expressing NK3R, agonist [MePhe10]-NKB 1 nM, read-out: IC50, antagonist of tachykinin receptor type 3
T1 construct: expressed in transfected cells; host or cells: CHO-K1 cells
T1 sequence (P29371 1-465): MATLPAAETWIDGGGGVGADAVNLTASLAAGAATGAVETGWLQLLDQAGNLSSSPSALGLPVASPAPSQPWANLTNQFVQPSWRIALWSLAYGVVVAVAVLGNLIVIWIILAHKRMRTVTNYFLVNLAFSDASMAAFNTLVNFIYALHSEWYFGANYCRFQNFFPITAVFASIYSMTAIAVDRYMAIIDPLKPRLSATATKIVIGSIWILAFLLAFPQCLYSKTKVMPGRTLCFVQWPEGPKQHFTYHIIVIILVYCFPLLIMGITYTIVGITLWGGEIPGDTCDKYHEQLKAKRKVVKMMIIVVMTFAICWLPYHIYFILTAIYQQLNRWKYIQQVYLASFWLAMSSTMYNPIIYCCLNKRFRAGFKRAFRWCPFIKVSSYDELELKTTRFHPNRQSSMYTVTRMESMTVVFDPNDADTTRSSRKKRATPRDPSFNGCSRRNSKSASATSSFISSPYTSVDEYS
Procedure: Compound I was dissolved in DMSO to a concentration of 100 mM; then the stock solution was serially diluted with DMSO. The maximal start concentration of substance is 100 μM. The effect was determined at 5 concentrations of test compounds, each concentration was investigated twice. CHO-K1 cells expressing NK3R were used in the experiment, said cells after the preincubation with an agonist [MePhe10]-NKB (1 nM) were incubated with the test compound. The activity of receptors was determined by the intracellular calcium concentration using fluorescence spectroscopy (Br J Pharmacol. 1999 October; 128(3):627-36).

O=C(Cc1ccc(O)cc1)N[C@@H](Cc1ccccc1)C(=O)NCCc1ccccc1 [Compound I, 2-phenylethylamide N-(p-hydroxyphenylacetyl)phenylalanine]
The time of ejection of activated carbon ([1]; 1.5 mg/kg once intragastrically 1 hour prior to activated carbon): 108.7 ± 9.28 min | The time of ejection of activated carbon ([1]; 3 mg/kg once intragastrically 1 hour prior to activated carbon): 130.4 ± 11.42 min | The time of ejection of activated carbon ([1]; 7.5 mg/kg once intragastrically 1 hour prior to activated carbon): 123.4 ± 11.43 min | The time of ejection of activated carbon ([1]; 15 mg/kg once intragastrically 1 hour prior to activated carbon): 147.6 ± 8.94 min | Increase of the time of activated carbon evacuation ([1]; 1.5-15 mg/kg intragastrically, versus intact): 1.5-2 times | IC50 [2]: 15 µM
